Laboratory results from patent US10023565B2, “N,N′ substituted piperidinamine compounds, and preparation method and usage thereof” (Institute of Pharmacology and Toxicology Academy of …, priority 2013, dated 2018).
Read-outs that look alike come from different tables or passages of the source.

What was measured:
[1] = system: tumor cells and normal cells (12 kinds of cells); experiment: Extended test against tumor cell lines, statements on the whole panel; format: cell-based; conditions: 12 kinds of cells, 0.016-4 μM, 72 hours
Experimental: (§1) The compounds of Examples 36/37/40/47/49 were used to carry out extended test against tumor cell lines, wherein 12 kinds of cells were selected, including liver cancer cells, gastric cancer cells, pancreatic cancer cells, colorectal cancer cells, lung cancer cells and normal cells, which were shown in Table 12:
(§2) A 100 mm culture dish with overgrown adherent cells was digested with 1 ml 0.25% trypsin (GIBCO) at 37° C. for 5 min, and the reaction was terminated with 2 ml culture medium (containing 10% FBS, GIBCO). The cells were scattered and collected, after counting, diluted to 1×10^5 cells/ml, and seeded into a 96-well plate at 50 μl/well, 5000 cells/well, excluding the peripheral circle of wells in which no cell was added, but PBS was added, 54 wells in total, and then incubated at 37° C. for 24 hours for adhering.
(§3) The test sample was diluted to final concentration of 4, 1, 0.25, 0.063, 0.016 μM, culture medium was filled in control well, 3 parellel wells were set for each concentration, 50 μl each well, followed by incubation at 37° C. for 72 hours.
(§4) 3) Test after incubation at 37° C. for 72 hours: 50 μL of ATPlite kitsubstrate solution was added in each well, and vibrated for 3 min, followed by placing aside in darkness for 10 min, and then supernatant 100 μl/well was taken and placed on a luminescence test plate; the luminescence test plate that has been fully incubated was placed in a luminescence test instrument, to read luminescence value.
(§5) Cell survival rate (%)=Experimental group RLU/control group RLU×100%. The experimental data were subjected to data analysis and processing by utilizing GraphPad software.

MDA-MB-361 = experiment: Antitumor bioactivity evaluation, breast cancer cells (ATPlite); format: cell-based; conditions: Homo sapiens, test sample 5 μM, 72 hours, read-out: Inhibitory Rate % MDA-MB-361
How it was run: (§6)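 Single-concentration screen: 5 μM compound, or 5 μM compound plus 1 μM lapatinib, on adhered cells (5000/well) for 72 h. Viability by ATPlite luminescence relative to solvent control.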

MDA-MB-453 = experiment: as above; format: cell-based; conditions: Homo sapiens, test sample 5 μM, 72 hours, read-out: Inhibitory Rate % MDA-MB-453
How it was run: as §6

SK-BR3 = experiment: as above; format: cell-based; conditions: Homo sapiens, SK-BR-3; test sample 5 μM, 72 hours; read-out: Inhibitory Rate % SK-BR3
How it was run: as §6

BT474 = experiment: as above; format: cell-based; conditions: Homo sapiens, BT-474; for inhibition at 5 µM: test sample 5 μM, 72 hours, read-out: Inhibitory Rate % BT474
How it was run: as §6

SK/Lap^R1.0 = experiment: as above; format: cell-based; conditions: Homo sapiens; test sample 5 μM, 72 hours; read-out: Inhibitory Rate % SKLap^R1.0
How it was run: as §6

H460 = experiment: Extended test against tumor cell lines (ATPlite); format: cell-based; conditions: H460 (lung cancer), 72 hours
Experimental: as §1, §2, §3, §4, §5

[2] = system: MRC5 (lung epithelial fibroblast); experiment: Extended test against tumor cell lines (ATPlite); format: cell-based; conditions: MRC5 (normal cells), 72 hours
Experimental: as §1, §2, §3, §4, §5

COLO205 = experiment: Extended test against tumor cell lines (ATPlite); format: cell-based; conditions: COLO205 (colorectal cancer), 72 hours
Experimental: as §1, §2, §3, §4, §5

[3] = system: WI-38 (human embryonic lung fibroblast); experiment: Extended test against tumor cell lines (ATPlite); format: cell-based; conditions: WI-38 (normal cells), 72 hours
Experimental: as §1, §2, §3, §4, §5

Huh-7 = experiment: Extended test against tumor cell lines (ATPlite); format: cell-based; conditions: Huh-7 (liver cancer), 72 hours
Experimental: as §1, §2, §3, §4, §5

HepG2 = experiment: Extended test against tumor cell lines (ATPlite); format: cell-based; conditions: HepG2 (liver cancer), 72 hours
Experimental: as §1, §2, §3, §4, §5

[4] = system: six human breast cancer cell strains; experiment: Antitumor activity evaluation, statements on the whole panel; format: cell-based; conditions: compound alone
Excerpt: In antitumor activity evaluation, six human breast cancer cell strains are selected, including BT474, SK-BR3 which are human breast cancer cell strains sensitive to lapatinib, BT/Lap^R1.0, SK/Lap^R1.0 which are human breast cancer cell strains with secondary resistance to lapatinib, MDA-MB-361, MDA-MB-453 which are human breast cancer cell strains with natural resistance tolapatinib.
Antitumor bioactivity evaluation of the compounds of Examples according to the method described below
Cells plating: a 100 mm culture dish with overgrown adherent cells was digested with 1 ml 0.25% trypsin (GIBCO) at 37° C. for 5 min, and the reaction was terminated with 2 ml culture medium (containing 10% FBS, GIBCO). The cells were scattered and collected, after counting, diluted to 1×10^5 cells/ml, and seeded into a 96-well plate at 50 μl/well, 5000 cells/well, excluding the peripheral circle of wells in which no cell was added, but PBS was added, 60 wells in total, and then incubated at 37° C. for 24 hours for adhering.
Addition of the compound and lapatinib: the test sample was diluted to a final concentration of 5 μM, and the culture medium with the corresponding compound solvent concentration was filled in the control well, the compound solvent concentration was kept consistent in each well, 5 parellel wells were set for each concentration, 25 μl each well, 25 μl culture medium (in combined group, 25 μl lapatinib was added till a final concentration of 1 μM) supplemented, followed by incubation at 37° C. for 72 hours.
Test after incubation at 37° C. for 72 hours: 50 μL of ATPlite kit substrate solution was added in each well, and vibrated for 3 min, followed by placing aside in darkness for 10 min, and then supernatant 100 μl/well was taken and placed on aluminescence test plate; the luminescence test plate that has been fully incubated was placed in a luminescence test instrument, to read luminescence value.
1. Cell survival rate (%)=Experimental group RLU/control group RLU×100%. The experimental data were subjected to data analysis and processing by utilizing GraphPad software.

BT/Lap^R1.0 = experiment: Antitumor bioactivity evaluation, breast cancer cells (ATPlite); format: cell-based, human; conditions: for inhibition at 5 µM: test sample 5 μM, 72 hours, read-out: Inhibitory Rate % BT/Lap^R1.0
How it was run: as §6

With `CSc1nccc(N2CCC(N(C)Cc3ccc(C#N)cc3)CC2)n1` [Example 36, N-methyl-N-(4-cyanobenzyl)-N-[1-(2-methylthiopyrimidin-4-yl)piperidin-4-yl]amine] the “inhibition of tumor cells versus cytotoxicity to normal cells” value [1] was “certain inhibition and cytotoxicity to either tumor cells or normal cells, without significant difference”, the inhibition at 5 µM (MDA-MB-361) was 46.9% and the inhibition at 5 µM (MDA-MB-453) was 82.4%. It also gave an inhibition at 5 µM (SK-BR3) of 83.4%, an IC50 (BT474) of 1410 nM and an inhibition at 5 µM (BT474) of 75.5%. For the same molecule, the inhibition at 5 µM (SK/Lap^R1.0) was 86.1%, the Survival rate (H460; 0.016 μM) was 99.4% and the Survival rate (H460; 0.063 μM) was 99.3%. For the same molecule, the Survival rate (H460; 0.25 μM) was 97.3%, the Survival rate (H460; 1 μM) was 93.6% and the Survival rate (H460; 4 μM) was 19.1%. The Survival rate ([2]; 0.016 μM) was 96.8%, the Survival rate ([2]; 0.063 μM) was 96.1% and the Survival rate ([2]; 0.25 μM) was 91.0%. It also gave a Survival rate ([2]; 1 μM) of 76.1%, a Survival rate ([2]; 4 μM) of 39.1% and a Survival rate (COLO205; 0.016 μM) of 96.7%. The Survival rate (COLO205; 0.063 μM) was 96.9%, the Survival rate (COLO205; 0.25 μM) was 95.3% and the Survival rate (COLO205; 1 μM) was 84.5%. It also gave a Survival rate (COLO205; 4 μM) of 4.9%, a Survival rate ([3]; 0.016 μM) of 93.9% and a Survival rate ([3]; 0.063 μM) of 93.7%. It also gave a Survival rate ([3]; 0.25 μM) of 91.5%, a Survival rate ([3]; 1 μM) of 82.0% and a Survival rate ([3]; 4 μM) of 51.1%. The Survival rate (Huh-7; 0.016 μM) was 90.9%, the Survival rate (Huh-7; 0.063 μM) was 88.2% and the Survival rate (Huh-7; 0.25 μM) was 83.0%. For the same molecule, the Survival rate (Huh-7; 1 μM) was 65.4%, the Survival rate (Huh-7; 4 μM) was 14.3% and the Survival rate (HepG2; 0.016 μM) was 98.8%. It also gave a Survival rate (HepG2; 0.063 μM) of 97%, a Survival rate (HepG2; 0.25 μM) of 94.7% and a Survival rate (HepG2; 1 μM) of 77.1%. The Survival rate (HepG2; 4 μM) was 4.5%, the “growth inhibition to the six human breast cancer cell strains” value [4] was “relatively significant growth inhibition” and the IC50 (BT/Lap^R1.0) was 1470 nM. It also gave an IC50 (BT/Lap^R1.0; Homo sapiens) of 1410 nM and an inhibition at 5 µM (BT/Lap^R1.0; Homo sapiens) of 76.2%.
`CSc1nccc(N2CCC(N(C)Cc3c(Cl)cccc3Cl)CC2)n1` [Example 49, N-methyl-N-(2,6-dichlorobenzyl)-N-[1-(2-methylthiopyrimidin-4-yl)piperidin-4-yl]amine] was tested, and the “inhibition of tumor cells versus cytotoxicity to normal cells” value [1] was “certain inhibition and cytotoxicity to either tumor cells or normal cells, without significant difference”, the inhibition at 5 µM (MDA-MB-361) was 30.1% and the inhibition at 5 µM (MDA-MB-453) was 68.9%. It also gave an inhibition at 5 µM (SK-BR3) of 19.7%, an IC50 (BT474) of 780 nM and an inhibition at 5 µM (BT474) of 61.5%. It also gave an inhibition at 5 µM (SK/Lap^R1.0) of 13.5%, a Survival rate (H460; 0.016 μM) of 98.4% and a Survival rate (H460; 0.063 μM) of 98.3%. It also gave a Survival rate (H460; 0.25 μM) of 94.2%, a Survival rate (H460; 1 μM) of 47.9% and a Survival rate (H460; 4 μM) of 19.3%. It also gave a Survival rate ([2]; 0.016 μM) of 100.6%, a Survival rate ([2]; 0.063 μM) of 100.1% and a Survival rate ([2]; 0.25 μM) of 94.8%. For the same molecule, the Survival rate ([2]; 1 μM) was 80.8%, the Survival rate ([2]; 4 μM) was 41.1% and the Survival rate (COLO205; 0.016 μM) was 98.1%. For the same molecule, the Survival rate (COLO205; 0.063 μM) was 94.2%, the Survival rate (COLO205; 0.25 μM) was 95.8% and the Survival rate (COLO205; 1 μM) was 83.9%. The Survival rate (COLO205; 4 μM) was 4.1%, the Survival rate ([3]; 0.016 μM) was 98.5% and the Survival rate ([3]; 0.063 μM) was 97.3%. The Survival rate ([3]; 0.25 μM) was 92.4%, the Survival rate ([3]; 1 μM) was 79.8% and the Survival rate ([3]; 4 μM) was 48.4%. For the same molecule, the Survival rate (Huh-7; 0.016 μM) was 91.3%, the Survival rate (Huh-7; 0.063 μM) was 82% and the Survival rate (Huh-7; 0.25 μM) was 70.5%. The Survival rate (Huh-7; 1 μM) was 19.4%, the Survival rate (Huh-7; 4 μM) was 12.8% and the Survival rate (HepG2; 0.016 μM) was 101.8%. It also gave a Survival rate (HepG2; 0.063 μM) of 96.2%, a Survival rate (HepG2; 0.25 μM) of 82.1% and a Survival rate (HepG2; 1 μM) of 9.5%. For the same molecule, the Survival rate (HepG2; 4 μM) was 2.4%, the IC50 (BT/Lap^R1.0; Homo sapiens) was 700 nM and the inhibition at 5 µM (BT/Lap^R1.0; Homo sapiens) was 58.8%.
